Measurements reported in US6326471A, “Immunogenic peptides of prostate specific antigen” (priority 1998, dated 2001).

How the values were obtained:
[1] = test system: antibody to the alpha subunit of the acetylcholine receptor; conditions: without added hydrophobic LI or AI residues; cited from earlier work
anti-whole PSA antibody = assay: ELISA activity of PSA peptide segments with anti-whole PSA antibody; type: binding; conditions: average of "wet" and "dry" ELISA methods; rank 1 = most reactive of 14 peptides
Excerpt: The amino acid sequence of PSA was divided into fourteen peptide segments. Thirteen of the peptides were 19-mers to 21-mers and one peptide was a 16-mer. […] Two of the peptides lacked both the proline and the hydrophobic-hydrophilic-hydrophobic region descriptors. The combined presence of the two descriptors correlated extremely well with the immunodominance of PSA peptide segments. The six highest scoring PSA peptides in terms of ELISA activity with anti-whole PSA antibody had both characteristics as did the eighth best. Also, the presence of a central proline in a segment lacking the adjacent hydrophobic, hydrophilic, and hydrophobic region characteristic successfully predicted four of five subdominant (moderately ELISA reactive) epitopes, while the absence of both the proline and the hydrophobic-hydrophilic-hydrophobic region characteristics in a peptide segment correctly predicted the two least ELISA reactive peptide segments.

Substance | antibody binding of the peptide alone [1] | ELISA activity rank (anti-whole PSA antibody)
NPDVK | could not bind antibody alone | –
YSTCSGDSGGPLVCNGVLQG [PSA peptide 186-204] | – | 11
